Calls of active or inactive are those of the source. No cut-off for these calls is given here.
Columns and labels:
MDA-MB-468 [1] = assay: Induction of endoplasmic reticulum (ER) stress-mediated apoptosis in human MDA-MB-468 cells assessed as reduction in CHOP expression at 25 nM measured for 12 hrs in presence of 4-PBA by Western blot analysis; type: functional, cell-based
MDA-MB-468 [2] = assay: Induction of ferroptosis in human MDA-MB-468 cells assessed as decrease in lipid peroxidation level at 25 nM incubated for 6 hrs in presence of ferrostatin-1 by C11-BODIPY staining based flow cytometry analysis; type: functional, cell-based
MDA-MB-468 [3] = assay: Induction of apoptosis in human MDA-MB-468 cells transfected with ATF4 SiRNA assessed as increase in caspase 3/7 activation at 25 nM measured at 12 hrs by Western blot analysis; type: functional, cell-based
MDA-MB-468 [4] = assay: Effect on TRXR1 expression in human MDA-MB-468 cells at 25 nM incubated for 24 hrs by Western blot analysis; type: functional, cell-based
MDA-MB-468 [5] = assay: Induction of ferroptosis in human MDA-MB-468 cells assessed as decrease in 4-HNE level at 25 nM in presence of ferrostatin-1; type: functional, cell-based
MDA-MB-468 [6] = assay: Induction of apoptosis in human MDA-MB-468 cells assessed as increase in caspase 3/7 activation at 25 nM measured at 12 hrs in presence of 4-PBA by Western blot analysis; type: functional, cell-based
MDA-MB-468 [7] = assay: Induction of ferroptosis in human MDA-MB-468 cells assessed as lipid peroxidation level by measuring fluorescence intensity at 25 nM incubated for 6 hrs in presence of ferrostatin-1 by C11-BODIPY staining based microscopic analysis; type: functional, cell-based
[8] = target: T1, Thioredoxin reductase 1, cytoplasmic (Homo sapiens) (UniProt Q16881); assay: Inhibition of TRXR1 in human MDA-MB-468 cells incubated for 24 hrs by; type: cell-based
T1 sequence (whole entry): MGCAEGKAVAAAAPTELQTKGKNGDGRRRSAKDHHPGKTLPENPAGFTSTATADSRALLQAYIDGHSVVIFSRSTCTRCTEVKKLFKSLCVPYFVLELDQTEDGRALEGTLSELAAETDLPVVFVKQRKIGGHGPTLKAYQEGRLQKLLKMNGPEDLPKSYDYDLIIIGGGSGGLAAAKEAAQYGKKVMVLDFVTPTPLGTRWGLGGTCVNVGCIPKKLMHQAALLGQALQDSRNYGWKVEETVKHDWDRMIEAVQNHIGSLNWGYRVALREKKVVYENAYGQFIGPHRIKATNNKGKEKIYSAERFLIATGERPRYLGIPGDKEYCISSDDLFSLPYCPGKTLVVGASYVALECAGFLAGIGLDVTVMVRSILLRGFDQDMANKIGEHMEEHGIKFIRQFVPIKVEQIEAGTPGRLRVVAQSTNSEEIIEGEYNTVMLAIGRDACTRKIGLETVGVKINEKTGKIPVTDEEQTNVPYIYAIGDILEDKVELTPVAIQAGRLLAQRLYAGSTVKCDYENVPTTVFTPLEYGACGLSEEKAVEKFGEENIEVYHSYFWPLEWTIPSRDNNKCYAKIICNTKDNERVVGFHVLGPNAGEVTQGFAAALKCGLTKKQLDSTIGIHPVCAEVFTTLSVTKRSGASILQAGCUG

MDA-MB-468 [9] = assay: Induction of apoptosis in CHOP knockdown human MDA-MB-468 cells assessed as increase in caspase 3/7 activation at 25 nM measured at 12 hrs by Western blot analysis; type: functional, cell-based
MDA-MB-468 [10] = assay: Induction of ROS production in human MDA-MB-468 cells expressing TrxR1 assessed as reduction in ROS level at 25 nM incubated for 6 hrs by DCFH-DA staining based flow cytometry analysis; type: functional, cell-based
MDA-MB-468 [11] = assay: Induction of mitochondrial ROS generation in human MDA-MB-468 cells at 25 nM incubated for 6 hrs by MitoSOX dye staining based flow cytometry analysis; type: functional, cell-based
MDA-MB-468 [12] = assay: Induction of ferroptosis in human MDA-MB-468 cells assessed as reduction in intracellular GSH level at 25 nM incubated for 12 hrs; type: functional, cell-based
MDA-MB-468 [13] = assay: Induction of endoplasmic reticulum (ER) stress-mediated apoptosis in human MDA-MB-468 cells assessed as increase in phospho-eIF2alpha level at 25 nM measured after 12 hrs by Western blot analysis; type: functional, cell-based
MDA-MB-468 [14] = assay: Induction of endoplasmic reticulum (ER) stress-mediated apoptosis in human MDA-MB-468 cells assessed as increase in CHOP expression at 25 nM measured after 12 hrs by Western blot analysis; type: functional, cell-based
MDA-MB-468 [15] = assay: Induction of ferroptosis in human MDA-MB-468 cells assessed as increase in 4-HNE level at 25 nM; type: functional, cell-based
[16] = target: T2, Phospholipid hydroperoxide glutathione peroxidase GPX4 (Homo sapiens) (UniProt P36969); assay: Inhibition of GPX4 in human MDA-MB-468 cells incubated for 12 hrs in presence of NADPH; type: cell-based; details: dose 25.0 nM
T2 sequence (whole entry): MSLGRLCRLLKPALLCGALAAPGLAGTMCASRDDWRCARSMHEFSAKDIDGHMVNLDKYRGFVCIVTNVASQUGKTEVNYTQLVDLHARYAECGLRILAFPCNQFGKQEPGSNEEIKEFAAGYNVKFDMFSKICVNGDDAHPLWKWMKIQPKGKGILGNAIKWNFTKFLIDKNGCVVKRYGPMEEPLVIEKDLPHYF

MDA-MB-468 [17] = assay: Induction of endoplasmic reticulum (ER) stress-mediated apoptosis in human MDA-MB-468 cells assessed as increase in ATF4 expression at 25 nM measured after 12 hrs by Western blot analysis; type: functional, cell-based
MDA-MB-468 [18] = assay: Induction of ferroptosis in human MDA-MB-468 cells assessed as increase in MDA level at 25 nM; type: functional, cell-based
MDA-MB-468 [19] = assay: Induction of endoplasmic reticulum (ER) stress-mediated apoptosis in human MDA-MB-468 cells assessed as reduction in ATF4 expression at 25 nM measured for 12 hrs in presence of 4-PBA by Western blot analysis; type: functional, cell-based
MDA-MB-468 [20] = assay: Induction of ferroptosis in human MDA-MB-468 cells assessed as increase in cell viability at 25 nM incubated for 48 hrs in presence of ferrostatin-1; type: functional, cell-based
MDA-MB-468 [21] = assay: Induction of ferroptosis in human MDA-MB-468 cells assessed as increase in cell viability at 25 nM incubated for 48 hrs in presence of Z-VAD; type: functional, cell-based
MDA-MB-468 [22] = assay: Antiproliferative activity against human MDA-MB-468 cells expressing GPX4 assessed as cell viability at 25 nM incubated for 48 hrs by MTT assay; type: functional, cell-based
[23] = target: T1, Thioredoxin reductase 1, cytoplasmic (Homo sapiens); assay: Inhibition of recombinant TRXR1 (unknown origin) assessed as reduction in DTNB incubated for 2 hrs in presence of NADPH by microplate reader analysis
MDA-MB-468 [24] = assay: Antiproliferative activity against human MDA-MB-468 cells expressing TrxR1 assessed as reduction in cell viability at 50 nM incubated for 48 hrs by MTT assay; type: functional, cell-based
MDA-MB-468 [25] = assay: Induction of ferroptosis in human MDA-MB-468 cells assessed as decrease in MDA level at 25 nM in presence of ferrostatin-1; type: functional, cell-based

`CCCCCCC[C@@H]1CC(=O)N[C@H](Cc2ccccc2)C(=O)N[C@H]2CSSC[C@H](NC2=O)C(=O)O1` was tested. Which Activity (MDA-MB-468 [1]) did it give?
The Activity was “Active”.

What about the Activity (MDA-MB-468 [2]) of the same compound?
Its Activity is “Active”.

And the Activity (MDA-MB-468 [3])?
The Activity was “Active”.

And the Activity (MDA-MB-468 [4])?
The Activity was “inactive”.

What about the Activity (MDA-MB-468 [5]) of the same compound?
Its Activity is “Active”.

And the Activity (MDA-MB-468 [6])?
The Activity was “Active”.

What about the Activity (MDA-MB-468 [7]) of the same compound?
The Activity was “Active”.

What about the inhibition [8] of the same compound?
Its inhibition is “Active”.

What about the Activity (MDA-MB-468 [9]) of the same compound?
Its Activity is “Active”.

And the Activity (MDA-MB-468 [10])?
The Activity was “Active”.

And the Activity (MDA-MB-468 [11])?
Its Activity is “Active”.

What about the Activity (MDA-MB-468 [12]) of the same compound?
Its Activity is “inactive”.

And the Activity (MDA-MB-468 [13])?
Its Activity is “Active”.

And the Activity (MDA-MB-468 [14])?
The Activity was “Active”.

And the Activity (MDA-MB-468 [15])?
Its Activity is “inactive”.

And the inhibition [16]?
Its inhibition is “Dose-dependent-effect”.

What about the Activity (MDA-MB-468 [17]) of the same compound?
Its Activity is “Active”.

And the Activity (MDA-MB-468 [18])?
The Activity was “inactive”.

What about the Activity (MDA-MB-468 [19]) of the same compound?
The Activity was “Active”.

And the Activity (MDA-MB-468 [20])?
The Activity was “inactive”.

And the Activity (MDA-MB-468 [21])?
Its Activity is “inactive”.

What about the Activity (MDA-MB-468 [22]) of the same compound?
The Activity was “inactive”.

And the inhibition [23]?
Its inhibition is “Active”.

And the Activity (MDA-MB-468 [24])?
The Activity was “Active”.

And the Activity (MDA-MB-468 [25])?
Its Activity is “Active”.

What does the source list for `CCCCCCC[C@@H](O)CC(=O)N[C@H](Cc1ccccc1)C(=O)N[C@H]1CSSC[C@@H](C(=O)O)NC1=O`?
Activity (MDA-MB-468 [1]): inactive; Activity (MDA-MB-468 [2]): Active; Activity (MDA-MB-468 [3]): Active; Activity (MDA-MB-468 [4]): inactive; Activity (MDA-MB-468 [5]): Active; Activity (MDA-MB-468 [6]): Active; Activity (MDA-MB-468 [7]): Active; inhibition [8]: Active; Activity (MDA-MB-468 [9]): Active; Activity (MDA-MB-468 [10]): Active; Activity (MDA-MB-468 [11]): inactive; Activity (MDA-MB-468 [12]): inactive; Activity (MDA-MB-468 [13]): inactive; Activity (MDA-MB-468 [14]): inactive; Activity (MDA-MB-468 [15]): inactive; inhibition [16]: Dose-dependent-effect; Activity (MDA-MB-468 [17]): inactive; Activity (MDA-MB-468 [18]): inactive; Activity (MDA-MB-468 [19]): inactive; Activity (MDA-MB-468 [20]): inactive; Activity (MDA-MB-468 [21]): inactive; Activity (MDA-MB-468 [22]): inactive; inhibition [23]: inactive; Activity (MDA-MB-468 [24]): Active; Activity (MDA-MB-468 [25]): Active

With `CCCCCCC[C@@H]1CC(=O)N[C@H](Cc2ccccc2)C(=O)N[C@@H](CSC)C(=O)N[C@@H](CSC)C(=O)O1` as the compound, how does the Activity (MDA-MB-468 [1]) read?
Its Activity is “inactive”.

And the Activity (MDA-MB-468 [2])?
The Activity was “Active”.

And the Activity (MDA-MB-468 [3])?
Its Activity is “Active”.

And the Activity (MDA-MB-468 [4])?
The Activity was “inactive”.

What about the Activity (MDA-MB-468 [5]) of the same compound?
Its Activity is “Active”.

What about the Activity (MDA-MB-468 [6]) of the same compound?
Its Activity is “Active”.

What about the Activity (MDA-MB-468 [7]) of the same compound?
Its Activity is “Active”.

What about the inhibition [8] of the same compound?
Its inhibition is “Active”.

What about the Activity (MDA-MB-468 [9]) of the same compound?
The Activity was “Active”.

And the Activity (MDA-MB-468 [10])?
The Activity was “Active”.

And the Activity (MDA-MB-468 [11])?
Its Activity is “inactive”.

And the Activity (MDA-MB-468 [12])?
Its Activity is “inactive”.

What about the Activity (MDA-MB-468 [13]) of the same compound?
Its Activity is “inactive”.

And the Activity (MDA-MB-468 [14])?
Its Activity is “inactive”.

What about the Activity (MDA-MB-468 [15]) of the same compound?
The Activity was “inactive”.

What about the inhibition [16] of the same compound?
Its inhibition is “Dose-dependent-effect”.

What about the Activity (MDA-MB-468 [17]) of the same compound?
Its Activity is “inactive”.

And the Activity (MDA-MB-468 [18])?
The Activity was “inactive”.

What about the Activity (MDA-MB-468 [19]) of the same compound?
Its Activity is “inactive”.

What about the Activity (MDA-MB-468 [20]) of the same compound?
The Activity was “inactive”.

What about the Activity (MDA-MB-468 [21]) of the same compound?
The Activity was “inactive”.

And the Activity (MDA-MB-468 [22])?
Its Activity is “inactive”.

And the inhibition [23]?
Its inhibition is “inactive”.

And the Activity (MDA-MB-468 [24])?
Its Activity is “Active”.

What about the Activity (MDA-MB-468 [25]) of the same compound?
The Activity was “Active”.

— ChEMBL document CHEMBL6078706, “Deciphering the Comprehensive Structure-Activity Relationship of Sunshinamide for Breast Cancer Therapy through Dual Modulation of Apoptotic and Ferroptotic Pathways via TrxR1 and Gpx4 Inhibition” (J Med Chem, 2024)
